Data published in patent publication US20140323519A1, “HETEROCYCLIC COMPOUNDS AS B-RAF INHIBITORS FOR TREATMENT OF CANCER” (MERCK SHARP & DOHME CORP., priority 2011, published 2014).

Biological target: T1, B-Raf kinase (Homo sapiens, UniProt P15056)
T1 construct: purchased Upstate 14-530
Test: B-Raf kinase assay (IMAP fluorescence polarisation, B-raf/MEK1/ERK2 cascade)
Type: biochemical
Settings: B-raf 0.2 U/mL, 50 μM ATP, 60 min pre-incubation, FP readout
Protocol: Other assays are known in the literature and could be readily performed by those of skill in the art.
9) B-raf, active enzyme (for example #14-530, Upstate)
13) Fluorescein labeled substrate peptide (“ERK-tide”; IPTTPITTTYFFFK-5FAM-COOH), (for example #R7292/#R7293, Molecular Devices)
Prepare fresh Kinase Reaction buffer (KR-buffer) just before use: 50 mL Reaction buffer+50 μl 1 M DTT (1 mM final concentration). Serial dilutions of test compounds are made in 100% DMSO. For example a 10 points half log serial dilution from 1 mM to 31.6 nM leading to a final compound concentration range in the assay from 10 μM to 0.316 nM can be used.
1) Add 2.5 μL/well test compound in KR-buffer (this solution contains 8% DMSO) or (in minimum, maximum and background wells) 2.5 μL/well KR-buffer containing 8% DMSO. (Final DMSO concentration in the assay is 1%).
2) Add 5 μL/well 0.8 U/mL B-raf enzyme diluted in KR-buffer (final B-raf enzyme concentration in the assay is 0.2 U/mL) to all wells.
3) Pre-incubate 60 minutes at room temperature in the dark.
4) Add 5 μL/well 256 ng/mL MEK1 enzyme diluted in KR-buffer (final MEK1 enzyme concentration in the assay is 64 ng/mL) to all wells.
5) Add 5 μL/well 2.4 μg/mL Erk2 enzyme with 200 nM Fl-peptide substrate diluted in KR-buffer (final concentration in the assay of Erk2 enzyme is 600 ng/mL and of Fl-peptide substrate is 50 nM) to all wells except the background wells. Add here 5 μL/well 2.4 μg/mL Erk2 enzyme without 200 nM Fl-peptide substrate.
6) Add 2.5 μL/well 400 μM ATP to minimum and compound wells (50× dilution of the mM stock in KR-buffer, final ATP concentration in the assay is 50 μM) or (in maximum wells) 2.5 μl/well KR-buffer.
7) Incubate 60 minutes at 30° C. in the dark.
8) Add 20 μL/well IMAP Progressive Binding Solution (IMAP Progressive Binding Solution: 75% 1× buffer A and 25% 1× buffer B with 1:900 dilution of Progressive Binding Reagent, all kit contents) to all wells.
9) Incubate 60 minutes at room temperature in the dark.
10) Read the FP signal on Envision multi-label reader.
On every 384-well assay plate, 16-18 wells are used as minimum wells (wells without inhibitor, 0% effect), 16-18 wells are used as maximum wells (wells without ATP, 100% effect). 16 wells are used for measuring the background signal (everything but not substrate). For all assay plates duplicates are prepared.
Run as two independent experiments (N=2) on duplicate plates (n=2).
IC50 Determinations: mP values of compound test wells are converted to percent effect based on 0% effect and 100% effect controls. Dose-response curves were generated from percent effect data plotted against test compound concentration, each in duplicate, from 10 point serial dilutions of inhibitory compounds. To generate IC50 values, the dose-response curves were fitted to a standard sigmoidal curve and IC50 values were derived by nonlinear regression analysis.

T1 sequence (P15056 416-766 limits assumed): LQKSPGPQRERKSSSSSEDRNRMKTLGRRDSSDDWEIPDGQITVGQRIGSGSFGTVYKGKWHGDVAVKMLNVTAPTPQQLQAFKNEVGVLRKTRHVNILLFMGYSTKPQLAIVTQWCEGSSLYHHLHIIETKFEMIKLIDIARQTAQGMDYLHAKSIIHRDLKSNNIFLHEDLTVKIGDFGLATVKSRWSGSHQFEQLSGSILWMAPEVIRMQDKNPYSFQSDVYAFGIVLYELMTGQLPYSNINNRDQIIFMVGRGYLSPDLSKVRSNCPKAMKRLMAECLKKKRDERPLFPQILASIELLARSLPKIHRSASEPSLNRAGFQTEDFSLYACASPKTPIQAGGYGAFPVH

IC50 [nM]	SMILES
> 100	COc1ccc2c(c1)n(-c1cc(NC(=O)c3cccc(C(C)(C)C#N)c3)ccc1C)c(=O)n2C [Compound 1-9, 3-(Cyano-dimethyl-methyl)-N-[3-(6-methoxy-3-methyl-2-oxo-2,3-dihydro-benzoimidazol-1-yl)-4-methyl-phenyl]-benzamide]
50 to 100	Cc1ccc(NC(=O)c2cccc(C(C)(C)C#N)c2)cc1-n1c(=O)n(C)c2ccccc21 [Compound 1-6, 3-(2-cyanopropan-2-yl)-N-(4-methyl-3-(3-methyl-2-oxo-2,3-dihydro-1H-benzo[d]imidazol-1-yl)phenyl)benzamide]
50 to 100	Cc1ccc(NC(=O)c2cccc(C(C)(C)C#N)c2)cc1N1CC(c2ccccc2)CC1=O (stereo not drawn) [Compound 1-5, 3-(Cyano-dimethyl-methyl)-N-[4-methyl-3-(2-oxo-4-phenyl-pyrrolidin-1-yl)-phenyl]-benzamide]
50 to 100	COc1ccc2c(c1)C(=O)N(c1cc(NC(=O)c3cccc(C(C)(C)C#N)c3)ccc1C)C2 [Compound 1-1, 3-(2-cyanopropan-2-yl)-N-(3-(6-methoxy-1-oxoisoindolin-2-yl)-4-methylphenyl)benzamide]
> 100	Cc1ccc(NC(=O)c2cccc(C(C)(C)C#N)c2)cc1N1CCN(c2ccccc2)C1=O [Compound 1-8, 3-(Cyano-dimethyl-methyl)-N-[4-methyl-3-(2-oxo-3-phenyl-imidazolidin-1-yl)-phenyl]-benzamide]
50 to 100	Cc1ccc(NC(=O)c2cccc(C(C)(C)C#N)c2)cc1N1CC(c2ccccc2)OC1=O (stereo not drawn) [Compound 1-7, 3-(Cyano-dimethyl-methyl)-N-[4-methyl-3-(2-oxo-5-phenyl-oxazolidin-3-yl)-phenyl]-benzamide]
